The results in this text go back to the PolyMetriX glass transition set.

In turn, `*/C(C#N)=C(\C#N)n1c(=O)c2cc3c(=O)n(*)c(=O)c3cc2c1=O` (repeat unit) came in with a glass transition temperature of 210.00 °C. As to `*/C=C/c1c(OC(=O)c2ccc(C(=O)Oc3cccc4ccc(*)nc34)cc2)ccc2ccccc12` (repeat unit), the glass transition temperature was determined as 175.00 °C.

Regarding `*C(=O)Nc1ccc(NC(=O)c2ccc3c(c2)C(=O)N(c2c(C)cc(C)c(N4C(=O)c5ccc(*)cc5C4=O)c2C)C3=O)cc1` (repeat unit), the glass transition temperature was found to be 327.00 °C. The result for `*C(=O)Nc1cccc(Oc2cccc(Oc3cccc(Oc4cccc(Oc5cccc(NC(=O)c6ccc7c(c6)C(=O)N(c6cccc(Oc8cccc(Oc9cccc(N%10C(=O)c%11ccc(*)cc%11C%10=O)c9)c8C#N)c6)C7=O)c5)c4C#N)c3)c2C#N)c1` (repeat unit) reads 193.00 °C; that for `*C(=O)c1ccc2c(c1)C(=O)N(c1ccc(-c3c(-c4ccc(-c5ccccc5)cc4)cc(-c4ccc(OCCCCCCCCCCOc5ccc(-c6cc(-c7ccc(-c8ccccc8)cc7)c(-c7ccc(N8C(=O)c9ccc(*)cc9C8=O)cc7)c(-c7ccc(-c8ccccc8)cc7)c6)cc5)cc4)cc3-c3ccc(-c4ccccc4)cc3)cc1)C2=O` (repeat unit), 103.50 °C. The result for `*C(=O)c1ccc2c(c1)C(=O)N(c1ccc(-c3c(-c4ccc(-c5ccccc5)cc4)cc(-c4ccc(OCCCCCCOc5ccc(-c6cc(-c7ccc(-c8ccccc8)cc7)c(-c7ccc(N8C(=O)c9ccc(*)cc9C8=O)cc7)c(-c7ccc(-c8ccccc8)cc7)c6)cc5)cc4)cc3-c3ccc(-c4ccccc4)cc3)cc1)C2=O` (repeat unit) reads 111.50 °C; that for `*C(=O)c1ccc2c(c1)C(=O)N(c1ccc(-c3ccc(N4C(=O)c5ccc(*)cc5C4=O)c(OCCCCCCOc4ccc(/C=C/c5ccc(F)cc5)cc4)c3)cc1OCCCCCCOc1ccc(/C=C/c3ccc(F)cc3)cc1)C2=O` (repeat unit), 128.00 °C. The compound `*C(=O)c1ccc2c(c1)C(=O)N(c1ccc(-c3ccccc3N3C(=O)c4ccc(*)cc4C3=O)cc1)C2=O` (repeat unit) displayed a glass transition temperature of 305.00 °C. The result for `*C(=O)c1ccc2c(c1)C(=O)N(c1ccc(-c3nc(-c4ccccc4)nc(-c4ccc(N5C(=O)c6ccc(*)cc6C5=O)cc4)n3)cc1)C2=O` (repeat unit) reads 355.00 °C; that for `*Cc1ccc2nc(-c3cc(-c4nc5ccc(*)cc5c(=O)o4)cc(N4C(=O)c5ccccc5C4=O)c3)oc(=O)c2c1` (repeat unit), 322.00 °C; that for `*OP(=O)(Oc1cccc2c(*)cccc12)OC1CCCCC1` (repeat unit), 134.00 °C. The result for `*OP(=O)(Oc1ccccc1)Oc1cccc2c(*)cccc12` (repeat unit) reads 138.00 °C; that for `*Oc1c(F)c(F)c(-c2c(F)c(F)c(Oc3ccc(C(c4ccc(*)cc4)(C(F)(F)F)C(F)(F)F)cc3)c(F)c2F)c(F)c1F` (repeat unit), 167.00 °C; that for `*Oc1c(F)c(F)c(S(=O)(=O)c2c(F)c(F)c(Oc3ccc(C(c4ccc(*)cc4)(C(F)(F)F)C(F)(F)F)cc3)c(F)c2F)c(F)c1F` (repeat unit), 182.00 °C. On to `*Oc1c([2H])c([2H])c(S(=O)(=O)c2c([2H])c([2H])c(Oc3c([2H])c([2H])c(C(c4c([2H])c([2H])c(*)c([2H])c4[2H])(C([2H])([2H])[2H])C([2H])([2H])[2H])c([2H])c3[2H])c([2H])c2[2H])c([2H])c1[2H]` (repeat unit), for which the glass transition temperature is 175.00 °C. Next, `*Oc1cccc(*)c1` (repeat unit): 53.00 °C. The result for `*Oc1ccccc1C(=O)OC(=O)c1ccccc1OC(=O)c1ccc(C(*)=O)cc1` (repeat unit) reads 120.00 °C; that for `*SC(*)(F)F` (repeat unit), -118.00 °C. Next, `*Sc1ccc(Cc2ccc(SC(*)=O)cc2)cc1` (repeat unit): 117.00 °C; `*Sc1ccc(Sc2ccc(Sc3ccc4c(c3)C(=O)N(N3C(=O)c5ccc(*)cc5C3=O)C4=O)cc2)cc1` (repeat unit): 223.50 °C; `*Sc1ccc2c(c1)Sc1ccc(*)cc1S2` (repeat unit): 209.90 °C. Take `*[Si](*)(C)c1ccc(COCCN(CC)c2ccc(/N=N/c3ccc([N+](=O)[O-])cc3)cc2)cc1` (repeat unit): the glass transition temperature amounted to 152.00 °C. Next, `*[Si](*)(CCCC)CCCC` (repeat unit): -40.50 °C; `*[Si](*)(CCCC)CCCCC` (repeat unit): -26.00 °C.

In turn, `*c1[nH]c2ccccc2c1*` (repeat unit) gave a glass transition temperature of 137.00 °C. With `*c1c(C)cc(C)c(N2C(=O)c3ccc(S(=O)(=O)c4ccc5c(c4)C(=O)N(*)C5=O)cc3C2=O)c1C` (repeat unit), the glass transition temperature amounted to 418.00 °C.

In turn, `*c1cc(-c2nc3ccccc3[nH]2)cc(-n2c(=O)c3cc4c(=O)n(*)c(=O)c4cc3c2=O)c1` (repeat unit) returned a glass transition temperature of 180.00 °C. Next, `*c1cc(-n2c(=O)c3cc4c(=O)n(*)c(=O)c4cc3c2=O)c(O)cc1O` (repeat unit): 362.00 °C; `*c1cc(N2C(=O)c3ccc(Oc4cccc5c(Oc6ccc7c(c6)C(=O)N(*)C7=O)cccc45)cc3C2=O)cc(C(F)(F)F)c1` (repeat unit): 250.00 °C. The result for `*c1ccc(C(c2ccc(N3C(=O)c4ccc(Oc5cccc6c(Oc7ccc8c(c7)C(=O)N(*)C8=O)cccc56)cc4C3=O)cc2)(C(F)(F)F)C(F)(F)F)cc1` (repeat unit) reads 276.00 °C; that for `*c1ccc(N2C(=O)c3ccc(C(=O)c4ccc5c(c4)C(=O)N(c4ccc(-c6nc7cc(-c8ccc9nc(-c%10ccccc%10)c(*)nc9c8)ccc7nc6-c6ccccc6)cc4)C5=O)cc3C2=O)cc1` (repeat unit), 260.00 °C; that for `*c1ccc(Oc2cc3ccccc3cc2Oc2ccc(N3C(=O)c4ccc(Oc5ccccc5Oc5ccc6c(c5)C(=O)N(*)C6=O)cc4C3=O)cc2)cc1` (repeat unit), 216.00 °C. In turn, `*c1ccc(Oc2ccc(-c3ccc(Oc4ccc(N5C(=O)c6ccc(Oc7ccccc7Oc7ccc8c(c7)C(=O)N(*)C8=O)cc6C5=O)cc4C(F)(F)F)cc3)cc2)c(C(F)(F)F)c1` (repeat unit) came in with a glass transition temperature of 208.00 °C.

The compound `*c1ccc(Oc2ccc(-c3ccc(Oc4ccc(N5C(=O)c6cccc(Oc7cc(C(C)(C)C)c(Oc8cccc9c8C(=O)N(*)C9=O)cc7C(C)(C)C)c6C5=O)cc4)cc3)cc2)cc1` (repeat unit) returned a glass transition temperature of 275.00 °C. Next, `*c1ccc(Oc2ccc(N3C(=O)c4ccc(Oc5cccc6c(Oc7ccc8c(c7)C(=O)N(*)C8=O)cccc56)cc4C3=O)cc2)cc1` (repeat unit): 240.00 °C; `*c1ccc(Oc2ccc(N3C(=O)c4ccc(Oc5cccc6c5C(=O)N(*)C6=O)cc4C3=O)cc2)cc1` (repeat unit): 285.00 °C; `*c1ccc(Oc2ccc(N3C(=O)c4cccc(Oc5cccc(Oc6cccc7c6C(=O)N(*)C7=O)c5)c4C3=O)cc2)cc1` (repeat unit): 226.00 °C. Next, `*c1ccc(Oc2ccc(Oc3ccc(N4C(=O)c5ccc(Oc6cccc7c6C(=O)N(*)C7=O)cc5C4=O)cc3)cc2)cc1` (repeat unit): 249.00 °C; `*c1ccc(Oc2ccc(Oc3ccc(N4C(=O)c5ccc(Oc6ccccc6Oc6ccc7c(c6)C(=O)N(*)C7=O)cc5C4=O)cc3)cc2)cc1` (repeat unit): 202.00 °C; `*c1ccc(Oc2ccc(S(=O)(=O)c3ccc(Oc4ccc(N5C(=O)c6ccc(Oc7cccc(Oc8ccc9c(c8)C(=O)N(*)C9=O)c7)cc6C5=O)cc4)cc3)cc2)cc1` (repeat unit): 201.00 °C. Turning to `*c1ccc(Oc2ccc(S(=O)(=O)c3ccc(Oc4ccc(N5C(=O)c6ccc(Oc7cccc8c(Oc9ccc%10c(c9)C(=O)N(*)C%10=O)cccc78)cc6C5=O)cc4)cc3)cc2)cc1` (repeat unit), the glass transition temperature was found to be 201.00 °C. Next, `*c1ccc(Oc2cccc(Oc3ccc(N4C(=O)c5cccc(Oc6cccc(Oc7cccc8c7C(=O)N(*)C8=O)c6)c5C4=O)cc3)c2)cc1` (repeat unit): 193.00 °C.

`*c1ccc(Oc2ccccc2Oc2ccc(N3C(=O)c4ccc(Oc5ccccc5Oc5ccc6c(c5)C(=O)N(*)C6=O)cc4C3=O)cc2C(F)(F)F)c(C(F)(F)F)c1` (repeat unit) returned a glass transition temperature of 185.00 °C. On to `*c1ccc(Sc2cc3c(cc2Sc2ccc(N4C(=O)C5C6C=CC(C7C(=O)N(*)C(=O)C67)C5C4=O)cc2)C(=O)N(c2ccc(CC)cc2)C3=O)cc1` (repeat unit), for which the glass transition temperature was 320.00 °C. Next, `*c1ccc(Sc2cc3c(cc2Sc2ccc(N4C(=O)c5ccc(Oc6ccc7c(c6)C(=O)N(*)C7=O)cc5C4=O)cc2)C(=O)N(c2ccc(CC)cc2)C3=O)cc1` (repeat unit): 271.00 °C. Next, `*c1ccc(Sc2ccc(Sc3ccc(Sc4ccc(N5C(=O)c6ccc(Sc7ccc(Sc8ccc(Sc9ccc%10c(c9)C(=O)N(*)C%10=O)cc8)cc7)cc6C5=O)cc4)cc3)cc2)cc1` (repeat unit): 176.5 °C. Next, `*c1ccc(Sc2ccc(Sc3ccc(Sc4ccc(Sc5ccc(N6C(=O)c7ccc(Sc8ccc(Sc9ccc(Sc%10ccc%11c(c%10)C(=O)N(*)C%11=O)cc9)cc8)cc7C6=O)cc5)s4)s3)s2)cc1` (repeat unit): 177.00 °C.

For the compound `*c1ccc2c(c1)C(=O)N(c1c(C)cc(C)c(N3C(=O)c4ccc(C(*)(C(F)(F)F)C(F)(F)F)cc4C3=O)c1C)C2=O` (repeat unit), the glass transition temperature worked out at 377.00 °C.

`*c1ccc2c(c1)C(=O)N(c1c(C)cc(C3(c4cc(C)c(N5C(=O)c6ccc(C(*)(C(F)(F)F)C(F)(F)F)cc6C5=O)c(C(C)C)c4)c4ccccc4-c4ccccc43)cc1C(C)C)C2=O` (repeat unit) registered a glass transition temperature of 335.00 °C. As to `*c1cccc(Oc2cccc(Oc3cccc(Oc4cccc(Oc5cccc(N6C(=O)c7ccc(Oc8ccc9c(c8)C(=O)N(*)C9=O)cc7C6=O)c5)c4C#N)c3)c2C#N)c1` (repeat unit), the glass transition temperature is 176.00 °C.
